What was measured:
eyelids/ocular surface = assay: Cooling after wiping closed eyelids with a towelette; assay type: in vivo, human; conditions: 1 mg/ml
Procedure: A second method of testing was to take a towelette saturated with a test solution of the cooling agent and to wipe the towelette over the dosed eyelids. The presence or absence of cooling (or irritanty, if applicable) sensations was then recorded at 10 minute intervals until the cessation of coolness in two successive intervals.
For testing of cooling compounds delivered to the eyelids with a towelette, the following procedures were used in the experiments of Table 3 and in Study 5 and 6. Three ml of liquid suspension or solution in distilled water was added to a 0.4 g cotton rectangle (50 mm×60 mm) (CS-being, Daisan Cotton, Japan) and individually sealed with a vaccuum apparatus (Foodsaver®, Jarden Corp.). Samples were stored in the freezer or refrigerator and thawed to room temperature before use. Wiping with the cotton pad delivers 40 to 45 μl of liquid composition to the eyelids ([…] to 22 μl per eye). So, if the concentration of the test substance was 1 mg/ml, the dose delivered to both eyes is a total of ˜40 to […], or ˜20 μg per eye. This method allows a reliable delivery of test substances because the dissolved or suspended particles in solution are evenly dispersed on the cotton pad in an excess volume of liquid. The presence or absence of cooling sensations was noted as being present or absent at 5 to 10 min intervals until no coolness was noticeable in two successive test intervals. Only the duration of cooling on the ocular surface was recorded, without an attempt to quantify the intensity of the sensation.

[1] = test system: dorsal surface of the tongue; conditions: threshold amount producing cooling on tongue of human volunteers; values from Watson US 04178459; cited from earlier work
philtrum skin = assay: Cooling sensation after ointment applied to philtrum skin; assay type: in vivo, human
Source text: A reliable place for topical application is the skin above the upper lip (above the vermilion border of the lips), on the philtrum, lateral to the philtrum until the nasolabial folds, and on the lower nostrils (subnasale). This part of the face is known to be densely innervated with cold receptors, second only to the surfaces of the eyeball and anogenitalia.
The intensity of the subjective skin sensation is rated as 0, 1, 2 or 3 with: 0 as no change; 1 as slight coolness, cold, or tingling; 2 as clear-cut signal of coolness, cold, or tingling; and 3 as robust cooling or cold. The intervals for recording sensations are 5 to 10 minutes, until two successive zeroes are obtained. The results (shown in FIG. 1) are averaged values of 4 to 6 separate trials in the same individual. The data are plotted using SigmaPlot® (Systat Software, Point Richmond Calif.) and a smoothing function with a negative exponential was used for analysis and statistical fit of the results. Confirmatory trials of cooling action of the long-acting NACE compounds were obtained in 2 to 4 individuals but not quantified for some because of the large number of chemicals that were evaluated
The onset of drug action is taken as the time to reach 2 units of coolness intensity, and offset of drug action is the time when coolness intensity drops below 2, after previously surpassing 2 units. The duration of cooling action is defined as the offset time minus the onset time. […] The quality of the sensation is noted, for example, as pure refreshing coolness, or if the sensation is accompanied by irritation (stinging or burning). The quality of the sensation is not rated for intensity.
For bioassay on the skin, approximately 30 mg was stirred and dissolved in 3 g of warm liquid Aquaphor® ointment to a yield 5 to 10 mg/ml (0.5% to 1.0 wt/vol) ointment. After cooling, 40 to 70 mg of the solid ointment was placed on the tip of a plastic stick and applied to the skin above the upper lip, on the philtrum, and lateral to the philtrum, up to the nasolabial folds, of test subjects and the onset and duration of cooling sensations noted.
The intensity of the subjective skin sensation was rated as 0, 1, 2 or 3 with: 0 as no change; 1 as slight coolness, cold, or tingling; 2 as clear signal of coolness, cold, or tingling; and 3 as robust cooling or cold. The intervals for recording sensations were 5 to 10 minutes, until two successive zeroes were obtained. The results (shown in FIG. 1) are averaged values of 4 to 6 separate trials in the same individual. The data are plotted using SigmaPlot® (Systat Software, Point Richmond, Calif., USA) and a smoothing function with a negative exponential was used for analysis and statistical fit of the results.
The onset of drug action was taken as the time to reach 2 units of coolness intensity, and offset of drug action was the time when coolness intensity drops below 2, after previously surpassing 2 units. The duration of cooling action was defined as the offset time minus the onset time. […] The quality of the sensation was also noted: such as pure refreshing coolness, or if the sensation was accompanied by irritation (stinging or burning). The quality of the sensation was not rated for intensity.
For the results in FIG. 1, the test compounds were singly applied to the skin above the upper lips at a 40 to 70 mg dose of a 1% wt/vol (10 mg/ml) ointment. Subsequently, for the results shown in Table 3, the test dose on the philtrum was reduced to a 0.5% wt/vol (5 mg/ml) ointment. The reason for choosing a lower dose was to increase the number of trials per individual and to have a reduced chance of substances accumulating in the skin.

[2] = test system: dorsal surface of the tongue; assay: Tongue cooling threshold, impregnated filter paper (Watson et al.); assay type: in vivo, human; conditions: summary comparison
Procedure: Watson et al. (U.S. Pat. No. 4,178,459) tested the properties of N-substituted p-menthane carboxamides. However, the branched chain alkylesters such as the isopropyl analogs described here in the Gly and D-Ala configuration of Formula 1 were never synthesized by Watson et al. Bioactivity of the Watson et at compounds were tested by putting filter paper (1×1 cm), impregnated with a known amount of compound, onto the dorsal surface of the tongue of the volunteer test subject. After 30 seconds, the subject was required to report presence or absence of a cooling effect. […] The average threshold of (−)-menthol for 6 subjects was 0.25 μg, but there was a 100-fold variation in individual sensitivity. The potencies of coolness signals detected from the dorsal surface of the tongue are not correlated to skin sensations of coolness may be confounded by gustatory, olfactory, and other variables, as well as by dilution from saliva.

periorbital skin = assay: Ointment applied to periorbital skin: coolness, eye irritancy, alerting (Study 3); assay type: in vivo, human; conditions: summary comparison
Source text: The ointment was also applied to the periorbital skin (upper and lower eyelids and on skin adjacent to the lateral canthus) for tests of irritancy near the eyes, and the subject is asked if irritation is present or absent. The intensity of the eye sensation is not rated.
For tests of irritancy near the eyes in Study 3 and 4, the ointment was applied to the periorbital skin (upper and lower eyelids and on skin adjacent to the lateral canthus), and the subject asked if irritation is present or absent. The intensity of the eye sensation is not rated, but just noted as being present or absent
A 1% preparation of 2-isopropyl-5-methyl-cyclohexanecarbonyl D-alanine methyl ester in Aquaphor® ointment was applied bilaterally to the periorbital area of four individuals. […] This experiment was then repeated three days later in the evening with the same individuals whose occupations required daylong activities before a computer screen.

Structure (SMILES): CC1CCC(C(C)C)C(O)C1 (single isomer, unassigned; (-)) [(−)-menthol, reference compound]
- Acts for >1 hour at 1 mg/ml (eyelids/ocular surface): no
- Threshold tongue [1]: 0.25 µg
- duration of cooling (FIG. 1) (philtrum skin; 40 to 70 mg of 1% wt/vol (10 mg/ml) ointment on skin above the upper lips): 0.3 h
- Cooling on skin of face (philtrum skin; summary comparison): yes
- “perfect” cooling experience (philtrum skin; summary comparison): no
- Cooling on tongue [2]: yes
- Eye Irritancy (periorbital skin): yes

From patent US20110082204A1, “N-alkylcarbonyl-amino acid ester and N-alkylcarbonyl-amino lactone compounds and their use” (priority 2006, published 2011)
